Source: US8410310B2, “Trypsin-like serine protease inhibitors, and their preparation and use” (The Medicines Company (Leipzig) GmbH, priority 2006, dated 2013)
“And” between values parts separate entries of the source, which are not always exact repeats. Equal values may be shown once.

How the values were obtained:
[1] = test system: thrombin generation in platelet-rich human plasma; experiment: Thrombin generation assay (Technothrombin TGA); assay type: cell-based; settings: 100 to 1000 nM, intrinsic and extrinsic activation
Experimental: Venous blood was withdrawn from the antecubital vein from healthy volunteers after written informed consent in accordance with local and federal guidelines with approval of the local review board (Ethikkommission, Klinikum Charité, Sauerbruchweg 5, 10117 Berlin). The blood was mixed with 0.11 mol/L sodium citrate (1:10). For ROTEM® analysis, whole citrated blood was used within 8 h after collection. Platelet-rich plasma (PRP) was prepared from citrated blood by centrifugation at 330×g for 10 min at room temperature, platelet-poor plasma (PPP) was collected following centrifugation at 1220×g for 12 min. The PRP was then adjusted to 3×10^8 platelets per mL using the autologous PPP. PRP was maintained at room temperature for less than 4 h before analysis. The remaining PPP was subjected to a high-speed centrifugation at 40,000×g for 30 min at 4° C. to remove any particulate material and was then stored at −70° C. until use.
The impact of Compound No. 3 and aprotinin on thrombin generation was studied in PRP using the commercially available Technothrombin® TGA kit (Technoclone, Vienna, Austria). This method allows assessment of the dynamics of thrombin generation, i.e. initiation, propagation, and inactivation phases, including the contribution of platelet function to the clotting process (Hemker et al., Pathophysiol. Haemost. Thromb. 33: 4-15, 2003). PRP was spiked with test compounds at different concentrations and pre-warmed to 37° C. in a black 96-well flat-bottom plate (Nunc, Wiesbaden, Germany). Thrombin generation was then initiated by adding a mixture of activator and fluorogenic thrombin substrate. […] Starting immediately after addition of reagents, fluorescence was recorded every 60 s for 120 min using the BMG POLARstar microplate reader (BMG Labtech, Offenburg, Germany) set at 390 nm excitation and 460 nm emission maintaining a temperature of 37° C. […] A typical thrombin generation curve is generated by plotting the first derivative (dF/dt) of the original fluorescence versus time curve and comparing it to a standard run containing known amounts of thrombin in buffer. […]

[2] = target: T1, Human factor XIIa (alpha) (Homo sapiens, UniProt P00748); experiment: Inhibition constants against purified human serine proteases: FXIIa; assay type: biochemical; settings: 50 mM Tris-HCl pH 8.0, 154 mM NaCl, Chromozym XII
T1 construct: Human factor Xa, factor XIa, factor XIIa, thrombin, and plasma kallikrein were purchased; purchased Enzyme Research Laboratories (via Haemochrom, Essen)
T1 sequence (P00748 373-615 limits assumed): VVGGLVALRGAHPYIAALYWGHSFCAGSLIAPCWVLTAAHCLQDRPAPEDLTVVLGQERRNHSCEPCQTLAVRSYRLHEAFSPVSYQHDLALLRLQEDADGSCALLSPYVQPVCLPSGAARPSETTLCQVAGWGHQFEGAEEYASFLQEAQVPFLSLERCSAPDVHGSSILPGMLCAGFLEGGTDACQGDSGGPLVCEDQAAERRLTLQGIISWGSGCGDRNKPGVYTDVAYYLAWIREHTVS
T1 sequence (P00748 20-372 partner limits assumed): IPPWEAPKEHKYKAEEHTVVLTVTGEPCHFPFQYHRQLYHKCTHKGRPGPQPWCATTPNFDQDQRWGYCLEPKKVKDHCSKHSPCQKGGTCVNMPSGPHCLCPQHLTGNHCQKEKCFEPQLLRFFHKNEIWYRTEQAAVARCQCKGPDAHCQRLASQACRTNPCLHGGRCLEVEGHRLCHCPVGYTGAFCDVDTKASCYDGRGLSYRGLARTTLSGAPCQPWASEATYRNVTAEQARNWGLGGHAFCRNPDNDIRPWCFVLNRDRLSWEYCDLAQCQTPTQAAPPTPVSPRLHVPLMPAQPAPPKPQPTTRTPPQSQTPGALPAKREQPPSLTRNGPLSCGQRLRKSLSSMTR
Excerpt: (§1) Aprotinin and tranexamic acid were purchased from SIGMA (Schnelldorf, Germany). Human factor Xa, factor XIa, factor XIIa, thrombin, and plasma kallikrein were purchased from Enzyme Research Laboratories, and human plasmin from Chromogenix (both via Haemochrom, Essen, Germany). Various synthetic peptide chromogenic substrates used for determination of inhibition constants were obtained from Pentapharm (Basel, Switzerland), Roche (Mannheim, Germany), and Chromogenix: Chromozyme PL for plasmin, S2302 for plasma kallikrein, Pefachrome FXa for factor Xa, Chromozym XII for FXIIa, Pefachrom tPA for thrombin, and Pefachrome PCa for factor XIa. […]
(§2) Inhibition of purified human serine proteases by Compound No. 3 and aprotinin was studied using the established methods described herein in Example 3 (i.e., Stürzebecher et al., 1997). […] Steady-state velocities of substrate conversion were obtained from progress curves generated by continuous monitoring of the absorbance at 405 nm with a microplate reader (Multiskan Ascent, Thermo Electron Corporation, Dreieich, Germany). […] Inhibition constants (Ki) were calculated from non-linear fits of individual data sets to the Michaelis-Menten equation for competitive inhibitors using an enzyme kinetic analysis software (SIGMA Plot® 9.0 Enzyme Kinetics Module, SSI, San Jose, Calif.). […]

plasmin = plasmin (Homo sapiens, UniProt P00747); experiment: Inhibition constants against purified human serine proteases: plasmin; assay type: biochemical; set-up: purchased Calbiochem; settings: 50 mM Tris-HCl pH 8.0, 154 mM NaCl, Chromozyme PL
Sequence of plasmin (P00747 581-810 limits assumed): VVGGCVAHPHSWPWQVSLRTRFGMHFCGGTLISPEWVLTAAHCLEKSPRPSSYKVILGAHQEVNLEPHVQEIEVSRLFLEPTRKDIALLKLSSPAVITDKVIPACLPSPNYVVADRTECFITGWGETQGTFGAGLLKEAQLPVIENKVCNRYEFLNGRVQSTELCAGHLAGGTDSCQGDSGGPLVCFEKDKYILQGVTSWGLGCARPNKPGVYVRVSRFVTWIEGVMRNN
Sequence of plasmin (P00747 97-580 partner limits assumed): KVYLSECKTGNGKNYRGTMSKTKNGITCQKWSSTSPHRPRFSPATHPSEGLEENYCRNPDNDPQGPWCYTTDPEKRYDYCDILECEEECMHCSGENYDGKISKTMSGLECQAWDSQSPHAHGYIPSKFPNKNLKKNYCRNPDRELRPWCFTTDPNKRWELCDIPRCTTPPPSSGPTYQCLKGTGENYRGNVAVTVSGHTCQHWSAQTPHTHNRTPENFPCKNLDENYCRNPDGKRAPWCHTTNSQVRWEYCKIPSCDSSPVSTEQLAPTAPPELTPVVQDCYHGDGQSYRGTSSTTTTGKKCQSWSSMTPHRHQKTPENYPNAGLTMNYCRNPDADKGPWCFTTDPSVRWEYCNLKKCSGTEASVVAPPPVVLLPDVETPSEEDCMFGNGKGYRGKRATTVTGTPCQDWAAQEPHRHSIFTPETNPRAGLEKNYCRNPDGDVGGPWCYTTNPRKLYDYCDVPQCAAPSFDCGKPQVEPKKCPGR
Excerpt: as §1, §2

Xa = Xa (Homo sapiens, UniProt P00742); experiment: Determination of inhibition constants for Xa; assay type: biochemical
Sequence of Xa (P00742 235-488 limits assumed): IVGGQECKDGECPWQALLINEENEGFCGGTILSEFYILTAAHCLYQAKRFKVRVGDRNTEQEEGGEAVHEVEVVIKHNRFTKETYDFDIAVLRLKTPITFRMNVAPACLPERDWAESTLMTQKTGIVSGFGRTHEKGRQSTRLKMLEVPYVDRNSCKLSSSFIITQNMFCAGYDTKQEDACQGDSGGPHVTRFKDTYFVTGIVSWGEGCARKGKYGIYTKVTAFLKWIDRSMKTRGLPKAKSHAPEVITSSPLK
Sequence of Xa (P00742 41-179 limits assumed): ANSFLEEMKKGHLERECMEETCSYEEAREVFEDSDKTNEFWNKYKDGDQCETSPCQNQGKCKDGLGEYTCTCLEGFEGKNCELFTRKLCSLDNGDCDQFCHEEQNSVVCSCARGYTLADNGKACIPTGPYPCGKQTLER
Method in brief: (§3)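 Chromogenic assays measured absorbance at 405 nm: zero-order reactions were stopped with acetic acid after 20 min, and pseudo-first-order rates were recorded kinetically at equilibrium. Ki was obtained by Dixon linear regression or by fitting to the competitive-inhibition rate equation, averaging at least two determinations.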

plasma kallikrein = plasma kallikrein (Homo sapiens, UniProt P03952); experiment: Determination of inhibition constants for PK; assay type: biochemical; set-up: purchased Enzyme Research Lab. / Enzyme Research Laboratories; settings: 25° C., substrate S2302, pH 8.0; read-out: PK [Ki]
Sequence of plasma kallikrein (P03952 391-638 limits assumed): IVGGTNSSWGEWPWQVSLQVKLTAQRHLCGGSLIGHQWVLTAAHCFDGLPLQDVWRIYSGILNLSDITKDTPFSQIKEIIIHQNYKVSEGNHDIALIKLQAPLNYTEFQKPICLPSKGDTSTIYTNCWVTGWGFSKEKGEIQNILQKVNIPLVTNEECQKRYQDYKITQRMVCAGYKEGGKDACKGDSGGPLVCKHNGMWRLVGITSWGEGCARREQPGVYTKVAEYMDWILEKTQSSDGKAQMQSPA
Sequence of plasma kallikrein (P03952 20-390 partner limits assumed): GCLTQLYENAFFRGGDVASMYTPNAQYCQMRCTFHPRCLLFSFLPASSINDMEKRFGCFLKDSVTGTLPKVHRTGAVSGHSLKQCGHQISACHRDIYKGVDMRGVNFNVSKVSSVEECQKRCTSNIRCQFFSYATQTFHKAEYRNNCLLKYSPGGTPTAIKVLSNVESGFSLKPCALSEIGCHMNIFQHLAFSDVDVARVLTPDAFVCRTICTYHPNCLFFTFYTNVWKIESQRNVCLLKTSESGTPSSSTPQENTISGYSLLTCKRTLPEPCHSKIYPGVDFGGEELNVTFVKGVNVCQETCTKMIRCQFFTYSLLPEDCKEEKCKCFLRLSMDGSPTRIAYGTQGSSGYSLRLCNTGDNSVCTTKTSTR
Method in brief: as §3

## N=C(N)c1ccc(CNC(=O)[C@H](Cc2cccc(CN)c2)NC(=O)[C@@H](CCCc2ccccc2)NS(=O)(=O)Cc2cccc(C(=O)O)c2)cc1 [compound 3, 3-HOOC-Bzls-d-Ppg-Phe(3-Ame)-4-Amba×2 acetate]
[1]
  endogenous thrombin potential: no impact
  onset of thrombin generation: concentration-dependent delay
  peak thrombin level: reduction
[2]
  Ki: 5200 ± 400 nM
plasmin
  Ki: 2.3 nM and 2.2 nM
Xa
  Ki: < 100 nM
Plasma kallikrein
  Ki: < 10 nM
